Results on 15 compounds are retold here after ChEMBL document CHEMBL4811270, “Nitrile-based peptoids as cysteine protease inhibitors” (Bioorg Med Chem, 2021).

For experiment [1], the target named is T1, Cathepsin K (Homo sapiens) (UniProt P43235).
T1 sequence (whole entry): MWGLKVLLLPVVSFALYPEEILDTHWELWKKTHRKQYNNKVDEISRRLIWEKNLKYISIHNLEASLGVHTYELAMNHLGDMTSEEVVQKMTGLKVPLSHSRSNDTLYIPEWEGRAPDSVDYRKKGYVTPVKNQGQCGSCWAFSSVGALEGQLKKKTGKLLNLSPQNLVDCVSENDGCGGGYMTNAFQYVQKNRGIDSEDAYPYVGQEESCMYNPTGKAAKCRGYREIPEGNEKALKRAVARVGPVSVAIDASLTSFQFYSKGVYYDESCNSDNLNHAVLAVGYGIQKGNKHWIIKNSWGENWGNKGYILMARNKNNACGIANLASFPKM
Briefly: Inhibition of recombinant human liver CatK at 10 uM using Z-FR-AMC as substrate by fluorescence assay relative to control.

In experiment [2] the target is T2, Cathepsin B (Homo sapiens, UniProt P07858). Put plainly: Inhibition of recombinant human liver CatB at 10 uM using Z-FR-AMC as substrate by fluorescence assay relative to control.
Experiment [3] has as its target T3, Procathepsin L (Homo sapiens, UniProt P07711). Put plainly: Inhibition of recombinant human liver CatL at 10 uM using Z-FR-AMC as substrate by fluorescence assay relative to control.
Target sequence in this assay (P07711 114-333 limits assumed): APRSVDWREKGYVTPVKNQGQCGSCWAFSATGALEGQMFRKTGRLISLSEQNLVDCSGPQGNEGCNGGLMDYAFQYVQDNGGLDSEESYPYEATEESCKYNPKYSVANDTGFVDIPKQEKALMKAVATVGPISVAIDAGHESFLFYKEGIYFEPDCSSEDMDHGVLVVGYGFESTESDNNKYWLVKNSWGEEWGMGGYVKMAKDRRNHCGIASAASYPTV
Experiment [4] deals with T4, Cathepsin S (Homo sapiens, UniProt P25774). Briefly: Inhibition of recombinant human liver CatS at 10 uM using Z-FR-AMC as substrate by fluorescence assay relative to control.
Target sequence in this assay (P25774 115-331 limits assumed): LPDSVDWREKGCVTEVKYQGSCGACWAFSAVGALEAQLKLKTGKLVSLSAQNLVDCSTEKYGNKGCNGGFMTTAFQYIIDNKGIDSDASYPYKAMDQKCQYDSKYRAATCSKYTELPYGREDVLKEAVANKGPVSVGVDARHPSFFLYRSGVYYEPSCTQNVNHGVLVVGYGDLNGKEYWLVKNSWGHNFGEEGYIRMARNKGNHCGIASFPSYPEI
The target of the next experiment is Cruzipain (Trypanosoma cruzi, UniProt P25779). Briefly: Inhibition of Trypanosoma cruzi cruzain using Z-FR-AMC as substrate by fluorescence assay.
Experiment [5] deals with T3, Procathepsin L. Put plainly: Inhibition of recombinant human liver CatL using Z-FR-AMC as substrate by fluorescence assay.
Target sequence in this assay (P07711 whole entry): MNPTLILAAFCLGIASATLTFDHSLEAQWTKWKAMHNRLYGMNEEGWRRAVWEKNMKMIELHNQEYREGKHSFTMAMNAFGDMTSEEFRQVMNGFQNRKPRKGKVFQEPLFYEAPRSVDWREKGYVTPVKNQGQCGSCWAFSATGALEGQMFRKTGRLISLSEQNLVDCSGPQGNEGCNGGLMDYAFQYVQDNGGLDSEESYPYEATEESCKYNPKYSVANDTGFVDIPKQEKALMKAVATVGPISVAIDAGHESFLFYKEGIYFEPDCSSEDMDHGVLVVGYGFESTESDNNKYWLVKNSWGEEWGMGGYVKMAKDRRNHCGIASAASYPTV
In experiment [6] the target is T4, Cathepsin S. Put plainly: Inhibition of recombinant human liver CatS using Z-FR-AMC as substrate by fluorescence assay.
Target sequence in this assay (P25774 whole entry): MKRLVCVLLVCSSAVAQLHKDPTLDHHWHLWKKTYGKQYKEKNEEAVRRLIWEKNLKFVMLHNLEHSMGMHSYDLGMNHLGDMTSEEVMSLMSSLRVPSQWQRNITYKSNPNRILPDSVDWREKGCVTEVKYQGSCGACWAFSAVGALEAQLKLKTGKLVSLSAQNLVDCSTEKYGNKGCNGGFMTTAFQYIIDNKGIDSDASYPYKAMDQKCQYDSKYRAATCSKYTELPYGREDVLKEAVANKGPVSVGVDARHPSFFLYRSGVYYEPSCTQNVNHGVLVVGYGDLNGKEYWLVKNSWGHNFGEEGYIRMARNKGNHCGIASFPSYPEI
Experiment [7] deals with Cruzipain (Trypanosoma cruzi) (UniProt P25779). Put plainly: Inhibition of Trypanosoma cruzi cruzain at 10 uM using Z-FR-AMC as substrate by fluorescence assay relative to control.
Another experiment deals with T5, Cathepsin K (Homo sapiens, UniProt P43235).
T5 sequence (P43235 whole entry): T1 sequence (whole entry)
Put plainly: Inhibition of recombinant human liver CatK using Z-FR-AMC as substrate by fluorescence assay.

The target in experiment [8] is T2, Cathepsin B. Put plainly: Inhibition of recombinant human liver CatB using Z-FR-AMC as substrate by fluorescence assay.

Sequence of Cruzipain (Trypanosoma cruzi) (P25779 123-467 limits assumed): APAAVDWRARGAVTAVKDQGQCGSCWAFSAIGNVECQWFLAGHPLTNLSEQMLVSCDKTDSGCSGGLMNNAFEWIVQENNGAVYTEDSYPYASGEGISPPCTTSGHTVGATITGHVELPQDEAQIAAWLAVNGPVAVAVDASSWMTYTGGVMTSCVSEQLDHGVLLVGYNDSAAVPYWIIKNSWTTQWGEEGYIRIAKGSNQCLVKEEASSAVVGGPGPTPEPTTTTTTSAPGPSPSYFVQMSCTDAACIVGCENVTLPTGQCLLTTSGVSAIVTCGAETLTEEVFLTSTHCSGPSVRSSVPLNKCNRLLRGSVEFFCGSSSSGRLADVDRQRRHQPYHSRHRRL
Sequence of Cruzipain (P25779 whole entry): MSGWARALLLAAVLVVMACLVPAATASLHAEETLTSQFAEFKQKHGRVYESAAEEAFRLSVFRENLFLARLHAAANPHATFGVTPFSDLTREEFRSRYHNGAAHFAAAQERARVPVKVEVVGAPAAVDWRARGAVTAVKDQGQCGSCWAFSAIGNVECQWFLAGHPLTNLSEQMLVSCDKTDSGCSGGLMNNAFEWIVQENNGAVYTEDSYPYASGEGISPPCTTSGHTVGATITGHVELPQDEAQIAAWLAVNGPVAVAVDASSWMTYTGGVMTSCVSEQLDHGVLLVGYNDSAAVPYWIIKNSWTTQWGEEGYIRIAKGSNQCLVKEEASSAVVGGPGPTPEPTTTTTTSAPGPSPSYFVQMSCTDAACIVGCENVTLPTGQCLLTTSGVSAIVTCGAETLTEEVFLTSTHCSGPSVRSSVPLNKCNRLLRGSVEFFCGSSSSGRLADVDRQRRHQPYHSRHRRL

With `N#CC1(NC(=O)CN(Cc2ccccc2)C(=O)Cc2ccccc2)CC1`, the inhibition in experiment [1] was 58%; on Cathepsin B [2], greater than 95%; at Procathepsin L [3] it was 87%; on Cathepsin S [4] it was greater than 95%. The compound further gave a Ki at Cruzipain of 2.51 µM.

`N#CCNC(=O)CN(Cc1ccccc1)C(=O)c1ccc(-c2ccccc2)cc1`: the inhibition in experiment [1] turned out to be 86%; at Cathepsin B [2], 66%. Besides, the Ki was 10 µM at Procathepsin L [5], 6.31 µM on Cathepsin S [6] and 3.16 µM at Cruzipain.

As to `Cn1nc(C(C)(C)C)cc1C(=O)N(CC(=O)NCC#N)Cc1ccccc1`, the inhibition is 58% in [1]; 93% at Cathepsin B [2]; 88% at Procathepsin L [3]; 84% at Cathepsin S [4]; greater than 95% in experiment [7].

Consider `CC(C)(C#N)NC(=O)CN(Cc1ccccc1)C(=O)c1ccccc1`, for which the inhibition was 90% on Cathepsin B [2] and greater than 95% on Procathepsin L [3]. Also, the values for the inhibition constant Ki on Cathepsin K, on Cathepsin S [6] and at Cruzipain were 0.251 µM, 7.94 µM and 6.31 µM, respectively.

With `N#CC1(NC(=O)CN(Cc2ccccc2)C(=O)c2ccccc2)CC1`, the inhibition on Cathepsin B [2] is 91%; at Procathepsin L [3] it was 82%. The Ki is 0.398 µM at Cathepsin K, 5.01 µM on Cathepsin S [6] and 7.94 µM on Cruzipain.

For the compound `COc1ccc(-c2ccc(C(=O)N(CC(=O)NC3(C#N)CC3)Cc3ccccc3)cc2)cc1`, the inhibition on Cathepsin B [2] was found to be 78%; on Procathepsin L [3] it was 68%. Besides, the Ki on Cathepsin K is 10 µM; at Cathepsin S [6] it was 3.98 µM; on Cruzipain it was 10 µM.

As to `N#CCNC(=O)CN(Cc1ccccc1)C(=O)c1ccccc1`, the inhibition in [1] was greater than 95%; on Cathepsin B [2] it was 85%. Also, the Ki on Procathepsin L [5] is 0.631 µM; on Cathepsin S [6], 5.01 µM; on Cruzipain it was 6.31 µM.

For the compound `N#CCNC(=O)CN(Cc1ccccc1)C(=O)c1cccc(I)c1`, the figures for the inhibition (in experiment [1]; on Cathepsin B [2]; in experiment [7]) were greater than 95%, 87% and 34%, respectively. The values for the inhibition constant Ki at Procathepsin L [5] and at Cathepsin S [6] were 6.31 µM and 10 µM, respectively.

With `N#CC1(NC(=O)CN(Cc2ccccc2)C(=O)c2ccc(-c3ccccc3)cc2)CC1`, the inhibition in [1] was greater than 95%; at Procathepsin L [3] it was greater than 95%; on Cathepsin S [4], 89%. The Ki is 3.16 µM at Cathepsin B [8] and 0.251 µM at Cruzipain.

With `N#CCNC(=O)CN(Cc1ccccc1)S(=O)(=O)c1cccc(Cl)c1`, the results for the inhibition (in experiment [1]; at Cathepsin B [2]; in experiment [7]) were 68%, greater than 95% and 87%, respectively. The inhibitory constant (Ki) is 2.51 µM on Procathepsin L [5] and 2 µM on Cathepsin S [6].

Turning to `Cn1nc(C(C)(C)C)cc1C(=O)N(CC(=O)NC1(C#N)CC1)Cc1ccccc1`, the values for the inhibition (in [1]; on Procathepsin L [3]; on Cathepsin S [4]) were 54%, 85% and greater than 95%, respectively. Moreover, the figures for the Ki at Cathepsin B [8] and at Cruzipain were 3.98 µM and 6.31 µM, respectively.

As to `N#CC1(NC(=O)[C@H](Cc2ccccc2)NC(=O)c2ccccc2)CC1`, the Ki was 7.94 µM on Cathepsin B [8] and 0.2 µM at Cruzipain.

As for `Cn1nc(C(C)(C)C)cc1C(=O)N(CC(=O)N[C@H](C#N)Cc1ccccc1)Cc1ccccc1`, the inhibition on Cathepsin B [2] is 80%; at Cathepsin S [4], 84%; in experiment [7] it was 87%. For the same compound, the results for the Ki at Cathepsin K and on Procathepsin L [5] were 0.316 µM and 3.16 µM, respectively.

For the compound `Cn1nc(C(C)(C)C)cc1C(=O)N(CC(=O)NCC#N)Cc1cccc(Cl)c1`, the inhibition (in experiment [1]; on Procathepsin L [3]; at Cathepsin S [4]) was greater than 95% throughout. Further, the Ki at Cathepsin B [8] is 7.94 µM; on Cruzipain, 0.158 µM.

For the compound `COc1ccc(-c2ccc(C(=O)N(CC(=O)NCC#N)Cc3ccccc3)cc2)cc1`, the inhibition on Cathepsin B [2] was 83%; on Procathepsin L [3], greater than 95%. Besides, the Ki at Cathepsin K was 2.51 µM; on Cathepsin S [6], 0.794 µM; at Cruzipain, 5.01 µM.
